Measured values reported in the NIST ThermoML archive (doi:10.1021/je600557n).
± gives the expanded uncertainty stated by the source.

Legend:
[1] = 101.33 kPa, Liquid
[2] = molar heat capacity at constant pressure; details: 101.33 kPa, Liquid, Small sample (50 mg) DSC
[3] = refractive index (Na D-line) (dimensionless); details: 101.33 kPa, Liquid, Standard Abbe refractometry

| mass density ([1]; 293.15 K) [kg/m3] | viscosity ([1]; 293.15 K) [mPa·s] | mass density ([1]; 303.15 K) [kg/m3] | viscosity ([1]; 303.15 K) [mPa·s] | mass density ([1]; 313.15 K) [kg/m3] | viscosity ([1]; 313.15 K) [mPa·s] | molar heat capacity at constant pressure ([2]; 288.15 K) [J/K/mol] | molar heat capacity at constant pressure ([2]; 293.15 K) [J/K/mol] | molar heat capacity at constant pressure ([2]; 298.15 K) [J/K/mol] | molar heat capacity at constant pressure ([2]; 303.15 K) [J/K/mol] | molar heat capacity at constant pressure ([2]; 308.15 K) [J/K/mol] | molar heat capacity at constant pressure ([2]; 313.15 K) [J/K/mol] | molar heat capacity at constant pressure ([2]; 318.15 K) [J/K/mol] | molar heat capacity at constant pressure ([2]; 323.15 K) [J/K/mol] | refractive index ([3]; 293.15 K) | refractive index ([3]; 303.15 K) | refractive index ([3]; 313.15 K) | SMILES |
| --- | --- | --- | --- | --- | --- | --- | --- | --- | --- | --- | --- | --- | --- | --- | --- | --- | --- |
| 853.15 ± 0.68 | 0.492 ± 0.008 | 842.8 ± 0.7 | 0.443 ± 0.008 | 832.44 ± 0.72 | 0.416 ± 0.007 | 153.5 ± 2.4 | 155.3 ± 2.4 | 156.9 ± 2.4 | 158.7 ± 2.5 | 160.2 ± 2.5 | 162.1 ± 2.5 | 164.2 ± 2.5 | 166.2 ± 2.6 | 1.4085 ± 0.0008 | 1.4017 ± 0.0007 | 1.3959 ± 0.0007 | CC1CCCO1 (stereo unspecified) [2-methyltetrahydrofuran] |
| 1100.42 ± 0.23 | 2.213 ± 0.033 | 1090.41 ± 0.22 | 1.812 ± 0.027 | 1080.26 ± 0.21 | 1.513 ± 0.023 | 149.9 ± 2.3 | 150.4 ± 2.3 | 151.5 ± 2.3 | 152.2 ± 2.4 | 152.9 ± 2.4 | 153.7 ± 2.4 | 154.7 ± 2.4 | 155.6 ± 2.4 | 1.4815 ± 0.0007 | 1.475 ± 0.0007 | 1.4706 ± 0.0006 | C[S+](C)[O-] [dimethyl sulfoxide] |
| 883.79 ± 0.62 | 0.875 ± 0.014 | 873.95 ± 0.64 | 0.752 ± 0.012 | 863.62 ± 0.66 | 0.658 ± 0.011 | 143.4 ± 2.2 | 145.2 ± 2.3 | 147.8 ± 2.3 | 150.2 ± 2.3 | 152.6 ± 2.4 | 156 ± 2.4 | 157.6 ± 2.4 | 159.9 ± 2.5 | 1.4235 ± 0.0008 | 1.4171 ± 0.0007 | 1.4119 ± 0.0007 | C1CCOCC1 [tetrahydropyran] |
